{"source": "patent US7884070B2", "about": "“Linear cationic peptides having antibacterial and/or antifungal properties” (priority 2002, dated 2011)", "key": {"[1]": {"system": "Acinetobacter baumanii clinical strains", "assay_type": "cell-based", "protocol": "A volume of 3 μl of each concentration of antibiotic was deposited on the agar media: • MH: for the non-exigent strains, • MH+5% sheep blood: for the streptococci, Listeria, Bacillus and Neisseria, • HTM: for the Haemophilus. […]"}, "[2]": {"system": "Streptococcus agalactiae ATCC 13813", "assay_type": "cell-based"}, "[3]": {"system": "Haemophilus influenzae ATCC 49247", "assay_type": "cell-based"}, "[4]": {"system": "Acinetobacter baumanii ATCC 19606", "assay_type": "cell-based"}, "in vitro": {"experiment": "in vitro", "conditions": "human, human plasma", "protocol": "The stability was determined at 37° C. After 0, 0.5, 1, 2, 4 and 6 hours, 3×200 μl were collected and added to 10 μl of internal standard (peptide no. 1) at 500 μM in water, to which 800 μl of 0.1% trifluoroacetic acid (TFA) in water was added. A volume of 1 ml of this mixture was deposited on resin C2 (EC) that had previously been equilibrated with 1 ml of 0.1% TFA in water, 1 ml of 0.1% TFA in acetonitrile and 1 ml of 0.1% TFA in water. After two washings with 1 ml of 0.1% TFA in water, the elution of peptide and of its metabolites was induced by 1 ml of 0.1% TFA in methanol. This was then dried under a stream of air and taken up in 200 μl of 0.1% TFA in water. A volume of 100 μl was analyzed by HPLC on a Luna C1 8(2) column, 3 μg, 4.6×100 mm (Phenomenex) with 0.1% TFA in water as solvent A and 0.1% TFA in acetonitrile as solvent B. A gradient of 15-45% of B in 12 minutes was used for the elution with a flow rate of 1.2 ml/min; detection was performed at 214 nm."}, "[5]": {"system": "Bacillus cereus ATCC 11778", "assay_type": "cell-based"}, "[6]": {"system": "Escherichia coli ATCC 35218", "assay_type": "cell-based"}, "[7]": {"system": "Proteus vulgaris ATCC 13315", "assay_type": "cell-based"}, "[8]": {"system": "Enterobacter aerogenes clinical strains", "assay_type": "cell-based"}, "[9]": {"system": "Streptococcus pneumoniae ATCC 6303", "assay_type": "cell-based"}, "[10]": {"system": "Serratia marcescens ATCC 8100", "assay_type": "cell-based"}, "[11]": {"system": "Enterococcus faecalis ATCC 19433", "assay_type": "cell-based"}, "[12]": {"system": "Staphylococcus epidermidis ATCC 12228", "assay_type": "cell-based"}, "[13]": {"system": "Bacillus subtilis ATCC 6633", "assay_type": "cell-based"}, "[14]": {"system": "Salmonella typhimurium ATCC 14028", "assay_type": "cell-based"}, "[15]": {"system": "Shigella sonnei ATCC 25931", "description": "The MIC values were determined by the method of microdilution in liquid medium (NCCLS M7A5) for all of the bacterial species on 96-well polystyrene plates.\nThe culture medium was Mueller-Hinton broth (MHB) (pH≈7.2-7.4) with supplements according to the bacterial species studied: • MHB alone for the non-exigent species, • MHB+3% lysed horse blood for the streptococci, Listeria and Neisseria, • MHB+hemin 15 mg/l+NAD 15 mg/l+yeast extract 5 g/l for Haemophilus.\nThe bacterial inoculum was prepared from re-isolation performed on: • CLED agar: non-exigent strains, • blood agar+5% goat blood: streptococci, Listeria and Neisseria • chocolate agar+5% goat blood: Haemophilus, Neisseria.\nThe final inoculum was at ≈5·10^5 cfu/ml (colony forming units). 50 μl of bacterial inoculum was distributed per well containing an equal volume of the peptide solution diluted by half in the appropriate culture medium depending on the bacterial species (0.5 to 512 μg/ml). The cultures were incubated at 35° C. in ambient air for 16 to 20 hours (20 to 24 h for the streptococci).\nDetermination of the MBC values was performed after inhibition and reading of the MIC plates:\nA volume of 3 μl of each concentration of antibiotic was deposited on the agar media: • MH: for the non-exigent strains, • MH+5% sheep blood: for the streptococci, Listeria, Bacillus and Neisseria, • HTM: for the Haemophilus.\nThe agars were incubated for 18 h at 35° C. in atmosphere: • in ambient air: for the non-exigent strains, • with 5-6% of CO2: for the streptococci, Listeria, Haemophilus and Neisseria.\nThe MBC is the lowest concentration of antibiotic that inhibits all bacterial growth on the transplant agar (<0. 1% of survivors)."}, "[16]": {"system": "Micrococcus luteus ATCC 9341", "assay_type": "cell-based"}, "[17]": {"system": "Staphylococcus aureus ATCC 14154", "assay_type": "cell-based"}, "[18]": {"system": "Shigella flexneri ATCC 112022"}, "[19]": {"system": "Enterobacter aerogenes ATCC 13048", "assay_type": "cell-based"}, "[20]": {"system": "Citrobacter freundii ATCC 8090", "assay_type": "cell-based"}, "Neisseria sica ATCC 9913": {"system": "Neisseria sica ATCC 9913", "assay_type": "cell-based"}, "C. neoformans Cn52D": {"system": "C. neoformans Cn52D", "assay_type": "cell-based, Cryptococcus neoformans", "description": "D. Determination of the miminimal inhibitory concentration (MIC) in liquid medium for the Filamentous Fungi and Yeast\nPeptide concentrations tested: from 0.2 μg/ml to 100 μg/ml."}, "[21]": {"experiment": "In vivo toxicity: maximal tolerated dose (MTD)", "conditions": "mouse, female OFI mice, intravenous perfusion approx. 15 minutes, 28 days after an injection", "description": "The maximal tolerated dose (MTD) for each peptide was determined on female OFI mice at 28 days after an injection. The MTD was defined as the maximal nonlethal dose that could be injected. The peptides were administered by the intravenous route as a perfusion of approximately 15 minutes duration. The injection volume was 10 μl/g, the perfusion rate was 1.2 ml/hour and the excipient was a solution of NaCl at 0.8%."}, "[22]": {"system": "Enterococcus faecium ATCC 35667", "assay_type": "cell-based"}, "[23]": {"system": "Streptococcus pneumoniae ATCC 49619", "assay_type": "cell-based"}, "[24]": {"system": "Enterococcus faecalis ATCC 29212", "assay_type": "cell-based"}, "[25]": {"system": "Escherichia coli ATCC 25922", "assay_type": "cell-based"}, "[26]": {"system": "Klebsiella pneumoniae ATCC 13883", "assay_type": "cell-based"}, "[27]": {"system": "Pseudomonas aeruginosa ATCC 27853", "assay_type": "cell-based"}, "[28]": {"system": "Streptococcus pyogenes ATCC 19615", "assay_type": "cell-based"}, "[29]": {"system": "Listeria monocytogenes ATCC 19115", "assay_type": "cell-based"}, "[30]": {"system": "Enterobacter cloacae ATCC 23355", "assay_type": "cell-based"}, "[31]": {"system": "Staphylococcus aureus ATCC 25923", "assay_type": "cell-based"}}, "note": "Where a SMILES comes first, the peptide text is derived from it.", "data": [{"compound": "CC(C)C[C@H](NC(=O)[C@H](CCCCN)NC(=O)[C@H](C)NC(=O)[C@H](CC(C)C)NC(=O)[C@@H](N)CCCCN)C(=O)N[C@@H](C)C(=O)N[C@@H](CCCCN)C(=O)N[C@@H](CCCCN)C(=O)N[C@@H](CC(C)C)C(=O)N[C@@H](C)C(=O)N[C@@H](CCCCN)C(=O)N[C@@H](CC(C)C)C(=O)N[C@@H](C)C(=O)N[C@@H](CCCCN)C(=O)N[C@@H](CCCCN)C(=O)N[C@@H](Cc1c[nH]cn1)C(=O)N[C@@H](CC(C)C)C(=O)N[C@@H](CCCCN)C(=O)N[C@@H](CCCCN)C(=O)N[C@@H](Cc1c[nH]cn1)C(=O)N[C@@H](CC(C)C)C(=O)N[C@@H](CCCCN)C(=O)N[C@@H](CCCCN)C(=O)N[C@@H](Cc1c[nH]cn1)C(=O)N[C@@H](CC(C)C)C(=O)N[C@@H](CCCCN)C(=O)O", "note": "[Peptide 2] (H-KLAKLAKKLAKLAKKHLKKHLKKHLK-OH; N-terminus and C-terminus assumed)", "values": [{"measurement": "MIC", "setting": "[1]", "result": 2, "unit": "µg/mL"}, {"measurement": "MBC", "setting": "[2]", "result": 8, "unit": "µg/mL"}, {"measurement": "MIC", "setting": "[2]", "result": 8, "unit": "µg/mL"}, {"measurement": "MBC", "setting": "[3]", "result": 32, "unit": "µg/mL"}, {"measurement": "MIC", "setting": "[3]", "result": 32, "unit": "µg/mL"}, {"measurement": "MBC", "setting": "[4]", "result": 2, "unit": "µg/mL"}, {"measurement": "MIC", "setting": "[4]", "result": 2, "unit": "µg/mL"}, {"measurement": "metabolised at 6 h, 50 µM", "setting": "in vitro", "result": "≤ 41", "unit": "%"}, {"measurement": "MBC", "setting": "[5]", "result": 8, "unit": "µg/mL"}, {"measurement": "MIC", "setting": "[5]", "result": 8, "unit": "µg/mL"}, {"measurement": "MBC", "setting": "[6]", "result": 2, "unit": "µg/mL"}, {"measurement": "MIC", "setting": "[6]", "result": 2, "unit": "µg/mL"}, {"measurement": "MBC", "setting": "[7]", "result": 4, "unit": "µg/mL"}, {"measurement": "MIC", "setting": "[7]", "result": 4, "unit": "µg/mL"}, {"measurement": "MBC", "setting": "[8]", "result": 8, "unit": "µg/mL"}, {"measurement": "MBC", "setting": "[9]", "result": 128, "unit": "µg/mL"}, {"measurement": "MIC", "setting": "[9]", "result": 32, "unit": "µg/mL"}, {"measurement": "MBC", "setting": "[10]", "result": ">512", "unit": "µg/mL"}, {"measurement": "MIC", "setting": "[10]", "result": ">512", "unit": "µg/mL"}, {"measurement": "MBC", "setting": "[11]", "result": 128, "unit": "µg/mL"}, {"measurement": "MIC", "setting": "[11]", "result": 64, "unit": "µg/mL"}, {"measurement": "MBC", "setting": "[12]", "result": 2, "unit": "µg/mL"}, {"measurement": "MIC", "setting": "[12]", "result": 2, "unit": "µg/mL"}, {"measurement": "MBC", "setting": "[13]", "result": 8, "unit": "µg/mL"}, {"measurement": "MIC", "setting": "[13]", "result": 8, "unit": "µg/mL"}, {"measurement": "MBC", "setting": "[14]", "result": 4, "unit": "µg/mL"}, {"measurement": "MIC", "setting": "[14]", "result": 4, "unit": "µg/mL"}, {"measurement": "MBC", "setting": "[15]", "result": 2, "unit": "µg/mL"}, {"measurement": "MIC", "setting": "[15]", "result": 2, "unit": "µg/mL"}, {"measurement": "MBC", "setting": "[16]", "result": 4, "unit": "µg/mL"}, {"measurement": "MIC", "setting": "[16]", "result": 4, "unit": "µg/mL"}, {"measurement": "MBC", "setting": "[17]", "result": 64, "unit": "µg/mL"}, {"measurement": "MIC", "setting": "[17]", "result": 32, "unit": "µg/mL"}, {"measurement": "MBC", "setting": "[18]", "result": 2, "unit": "µg/mL"}, {"measurement": "MIC", "setting": "[18]", "result": 2, "unit": "µg/mL"}, {"measurement": "MBC", "setting": "[19]", "result": 16, "unit": "µg/mL"}, {"measurement": "MIC", "setting": "[19]", "result": 16, "unit": "µg/mL"}, {"measurement": "MBC", "setting": "[20]", "result": 8, "unit": "µg/mL"}, {"measurement": "MIC", "setting": "[20]", "result": 8, "unit": "µg/mL"}, {"measurement": "MBC", "setting": "Neisseria sica ATCC 9913", "result": 0.5, "unit": "µg/mL"}, {"measurement": "MIC", "setting": "Neisseria sica ATCC 9913", "result": 0.5, "unit": "µg/mL"}, {"measurement": "MIC", "setting": "C. neoformans Cn52D", "result": 1.56, "unit": "µg/mL"}, {"measurement": "MTD at 28 days", "setting": "[21]", "result": 13.5, "unit": "mg/kg"}, {"measurement": "MBC", "setting": "[22]", "result": 32, "unit": "µg/mL"}, {"measurement": "MIC", "setting": "[22]", "result": 16, "unit": "µg/mL"}, {"measurement": "MBC", "setting": "[23]", "result": 256, "unit": "µg/mL"}, {"measurement": "MIC", "setting": "[23]", "result": 16, "unit": "µg/mL"}, {"measurement": "MBC", "setting": "[24]", "result": 32, "unit": "µg/mL"}, {"measurement": "MIC", "setting": "[24]", "result": 32, "unit": "µg/mL"}, {"measurement": "MBC", "setting": "[25]", "result": 2, "unit": "µg/mL"}, {"measurement": "MIC", "setting": "[25]", "result": 2, "unit": "µg/mL"}, {"measurement": "MBC", "setting": "[26]", "result": 32, "unit": "µg/mL"}, {"measurement": "MIC", "setting": "[26]", "result": 32, "unit": "µg/mL"}, {"measurement": "MBC", "setting": "[27]", "result": 8, "unit": "µg/mL"}, {"measurement": "MIC", "setting": "[27]", "result": 8, "unit": "µg/mL"}, {"measurement": "MBC", "setting": "[28]", "result": 8, "unit": "µg/mL"}, {"measurement": "MIC", "setting": "[28]", "result": 8, "unit": "µg/mL"}, {"measurement": "MBC", "setting": "[29]", "result": 2, "unit": "µg/mL"}, {"measurement": "MIC", "setting": "[29]", "result": 2, "unit": "µg/mL"}, {"measurement": "MBC", "setting": "[30]", "result": 2, "unit": "µg/mL"}, {"measurement": "MIC", "setting": "[30]", "result": 2, "unit": "µg/mL"}, {"measurement": "MBC", "setting": "[31]", "result": 32, "unit": "µg/mL"}, {"measurement": "MIC", "setting": "[31]", "result": 16, "unit": "µg/mL"}]}]}
